Data set [1] concerns the target T1, fatty acid amide hydrolase (FAAH) (Homo sapiens, UniProt O00519).
T1 construct: made in house; host or cells: Trichoplusia ni High Five cells infected with recombinant baculovirus Ac-hFAAH; microsomal fraction
T1 sequence (O00519 1-579): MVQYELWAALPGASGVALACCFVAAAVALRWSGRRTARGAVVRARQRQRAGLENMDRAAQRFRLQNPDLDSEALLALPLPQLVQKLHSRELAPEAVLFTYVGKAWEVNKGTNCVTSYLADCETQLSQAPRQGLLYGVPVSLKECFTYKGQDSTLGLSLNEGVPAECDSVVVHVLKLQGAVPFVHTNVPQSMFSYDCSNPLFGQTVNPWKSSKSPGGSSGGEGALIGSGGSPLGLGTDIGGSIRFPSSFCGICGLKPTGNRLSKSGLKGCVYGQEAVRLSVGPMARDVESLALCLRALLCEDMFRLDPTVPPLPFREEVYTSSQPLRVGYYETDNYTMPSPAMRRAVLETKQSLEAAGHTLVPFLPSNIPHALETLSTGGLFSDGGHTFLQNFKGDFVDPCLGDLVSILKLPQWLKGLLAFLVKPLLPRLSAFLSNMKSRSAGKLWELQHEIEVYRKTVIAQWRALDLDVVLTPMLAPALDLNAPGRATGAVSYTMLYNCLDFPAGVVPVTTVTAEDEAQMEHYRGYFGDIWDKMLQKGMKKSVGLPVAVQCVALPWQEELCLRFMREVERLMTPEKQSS
Nature of the data set: Kinetic study of FAAH toward substrates. Format: biochemical. On the procedure: Preparation of recombinant human FAAH. Transgenic expression of the human FAAH in a baculovirus system was performed by following the method described in Nishi et al., Arch. Biochem. Biophys., 445:115-123 (2006). The cDNA encoding human FAAH (GenBank Accession No. NM_001441) was amplified by PCR using a human liver cDNA library (Invitrogen; Carlsbad, Calif.) as a template. The primer pair was 5′-[…]-3′ and 5′-[…]-3′. BglII and EcoRI endonuclease sites (underlined) were incorporated just upstream of the start codon and downstream of the stop codon of the coding sequence of FAAH, respectively. The PCR products were cloned into a pCR2.1 vector (Invitrogen) and the nucleotide sequence was verified by DNA sequencing. The cDNA fragments were then excised and directionally ligated to the BglII and EcoRI sites of the baculovirus transfer vector pAcUW21 (Lopez-Ferber et al., Baculovirus transfer vectors, in “Baculovirus Expression Protocols,” Richardson (Ed.), pp 25-63, Humana Press, Totowa, N.J., 1995). Recombinant baculoviruses harboring the human FAAH gene, Ac-hFAAH, were generated by co-transfection of Spodoptera frugiperda-derived Sf21 cells with the recombinant transfer vector plasmid and Bsu36I-cleaved BacPAK6 viral DNA (Clontech Laboratories; Mountain View, Calif.) as described in O'Reilly et al., Baculovirus Expression Vectors: A Laboratory Manual, Oxford University Press, New York, 1992. Trichoplusia ni-derived High Five cells (1×10^6 cells/ml) were inoculated with a high titer of Ac-hFAAH. At 72 hours post-infection, the infected cells were harvested by centrifugation at 2,000×g for 20 min at 4° C. and suspended in 50 mM Tris-HCl (pH 8.0) containing 150 mM NaCl, 1 mM EDTA, 1 μM pepstatin, 100 μM leupeptin, and 0.1 mg/ml aprotinin. The cell suspension was then homogenized using a Polytron homogenizer and centrifuged at 10,000×g for 20 min at 4° C. The microsomal fraction was collected by ultracentrifugation of the supernatant at 100,000×g for 60 min at 4° C. The pellet was resuspended in 20 mM Tris-HCl (pH 8.0) containing 10% (w/v) glycerol and 1% (w/v) Triton-X 100 and stored at −80° C. until use.
Kinetic study. The kinetic assays were also performed as described above for the sensitivity assay. Briefly, a total volume of 201 μl contained 0.1 M sodium phosphate buffer (pH 8.0) (190 μl) with 1% glycerol and 0.1% Triton-X 100, protein solution (10 μl), and substrate solution (1 μl). The protein content was 0.67 μg per well (201 μl). The concentration of substrate (13) in DMSO was 200, 100, 50, 25, 12.5, 6.25, 3.13, 1.56, or 0.78 μM. Similarly, the concentration of substrate (17) in DMSO was 100, 50, 25, 12.5, 6.25, 3.13, 1.56, 0.78, or 0.39 μM. Four replicates were applied for each concentration. Reported kinetic data (km and Vmax) were analyzed by the SigmaPlot Enzyme Kinetics software (2001) using the Michaelis-Menten equation for all concentrations.

Data set [2] is described as follows: Comparison of aqueous solubility of substrates (absorbance at 800 nm). Particulars: 0.1 M phosphate buffer (pH 8.0), 1% ethanol, 37° C. The format is physicochemical. Here is the method: Comparison of aqueous solubility of substrates. The aqueous solubility of the aminopyridine derivatives (e.g., 13, 14) and the 7-aminocoumarin derivative (e.g., 15) was determined in clear 96-well styrene flat-bottom microtiter plates with a Spectra Max M2 spectrophotometer. Different concentrations of the substrates (13, 14 and 15; final concentration: 0.39, 0.78, 1.56, 3.13, 6.25, 12.5, 25, 50, 100, or 200 μM) in 200 μl 0.1 M sodium phosphate buffer (1% ethanol; pH 8.0) were used and the absorbance was recorded at a wavelength of 800 nm at 37° C. The measurements were performed in three replicates for each concentration.

Where [3] appears, read: pH 8.0, 37° C., 0.67 μg protein per well, Michaelis-Menten.

As usually defined, the Km is the concentration of substrate that gives half-maximal velocity. One may read the Vmax as the top rate of the reaction or transport when substrate is in excess. Regarding `CCCCCCCC(=O)Nc1ccc(OC)nc1` [Compound 13, N-(6-methoxypyridin-3-yl) octanamide], the Selectivity ratio in data set [1] (Vmax/Km of substrate over that of oleamide (5.5 × 10^−2)) amounted to 74.5. In addition, in data set [1] (setting [3]), the Michaelis-Menten constant (Km) came to 74.9 µM and the Vmax was 305 nmol/min/mg. Moreover, the “difference in Vmax between (13) and (17)” value in data set [1] (saturating substrate concentration) was found to be 8 fold. Further, the “aqueous solubility compared with coumarin substrate (15)” value in data set [2] is reported as “much higher solubility”.
